Measurements: patent US20260167619A2, “INDOLINE COMPOUNDS AND DERIVATIVES AS EGFR INHIBITORS” (BeOne Medicines I GmbH, priority 2020, published 2026)

How the values were obtained:
BaF3-Del_TM_CS cells = BaF3-Del_TM_CS cells (Homo sapiens, UniProt P00533, T790M/C797S, cells depend on it, form not given); test: Cell antiproliferation assay (CellTiter-Glo), BaF3-Del_TM_CS; assay type: cell-based; details: 48 h treatment, read-out: BaF3-Del_TM_CS IC50
Experimental: (§1) BaF3 cells are treated with compounds diluted in 0.2% DMSO, dilution is done according to the following protocol: (1) make 500× stock solution in DMSO from 5 mM by 5-fold dilution, total 8 doses were included; (2) make 10× solution in cell culture medium by transferring 2 μl 500× stock solution into 98 μl medium; (3) 10 μl of 10× solution is added to cells and incubate for 48 h.
(§2) After 48 h treatment, add 30 μl CellTiter-Glo reagent[CellTiter-Glo® 2.0, (Promega, Cat #G9242)] to each well; seal the plate and incubate 2 min at room temperature on a plate shaker; Allow the plate to incubate at room temperature for 10 minutes to stabilize the luminescent signal. Record luminescence on BMG PheraStar with luminescence protocol.
(§3) The IC50 value of a compound can be obtained by fitting the following equation
(§4) Wherein, X and Y are known values, and IC50, Hillslope, Top and Bottom are the parameters obtained by fitting with software. Y is the inhibition percentage (calculated from the equation), X is the concentration of the compound; IC50 is the concentration of the compound when the 50% inhibition is reached. The smaller the IC50 value is, the stronger the inhibitory ability of the compound is. Vice versa, the higher the IC50 value is, the weaker the ability the inhibitory ability of the compound is; Hillslope represents the slope of the fitted curve, generally around 1 *; Bottom represents the minimum value of the curve obtained by data fitting, which is generally 0%±20%; Top represents the maximum value of the curve obtained by data fitting, which is generally 100%±20%. The experimental data were fitted by calculating and analyzing with Dotmatics data analysis software.

[1] = biological target: T1, EGFR (aa668-1210, Invitrogen) (Homo sapiens, UniProt P00533); test: Biochemical EGFR inhibition assay (TR-FRET), wild-type EGFR; details: ATP at Km, 15 min pre-incubation, 60 min reaction; read-out: WT (Km ATP) IC50
T1 construct: EGFR (aa668-1210, Invitrogen); purchased Invitrogen
T1 sequence (P00533 668-1210): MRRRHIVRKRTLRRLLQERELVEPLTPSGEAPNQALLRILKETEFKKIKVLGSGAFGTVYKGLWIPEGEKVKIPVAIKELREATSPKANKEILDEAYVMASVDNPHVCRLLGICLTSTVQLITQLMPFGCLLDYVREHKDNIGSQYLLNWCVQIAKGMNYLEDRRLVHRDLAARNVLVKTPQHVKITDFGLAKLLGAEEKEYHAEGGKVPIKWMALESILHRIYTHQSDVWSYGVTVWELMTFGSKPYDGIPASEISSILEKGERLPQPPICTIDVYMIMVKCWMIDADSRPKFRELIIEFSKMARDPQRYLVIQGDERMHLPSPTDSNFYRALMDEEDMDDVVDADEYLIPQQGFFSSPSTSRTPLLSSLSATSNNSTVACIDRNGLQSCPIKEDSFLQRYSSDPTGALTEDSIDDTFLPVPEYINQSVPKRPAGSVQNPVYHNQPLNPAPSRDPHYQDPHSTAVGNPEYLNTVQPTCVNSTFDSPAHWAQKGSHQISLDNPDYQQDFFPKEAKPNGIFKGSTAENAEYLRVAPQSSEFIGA
Procedure, shortened: (§5)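 Biotin-poly GT phosphorylation detected with Eu-cryptate anti-phosphotyrosine (PT66) and XL665-streptavidin after EDTA/KF stop, 665/620 nm ratio. Enzyme and compound preincubated 15 min, then ATP at Km added for 60 min at room temperature. Four-parameter logistic fit gives IC50.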

BaF3-WT cells = BaF3-WT cells (Homo sapiens, UniProt P00533); test: Cell antiproliferation assay (CellTiter-Glo), BaF3-WT; assay type: cell-based; details: 48 h treatment, read-out: BaF3-WT IC50
BaF3-WT cells, sequence (P00533 whole entry, change not shown): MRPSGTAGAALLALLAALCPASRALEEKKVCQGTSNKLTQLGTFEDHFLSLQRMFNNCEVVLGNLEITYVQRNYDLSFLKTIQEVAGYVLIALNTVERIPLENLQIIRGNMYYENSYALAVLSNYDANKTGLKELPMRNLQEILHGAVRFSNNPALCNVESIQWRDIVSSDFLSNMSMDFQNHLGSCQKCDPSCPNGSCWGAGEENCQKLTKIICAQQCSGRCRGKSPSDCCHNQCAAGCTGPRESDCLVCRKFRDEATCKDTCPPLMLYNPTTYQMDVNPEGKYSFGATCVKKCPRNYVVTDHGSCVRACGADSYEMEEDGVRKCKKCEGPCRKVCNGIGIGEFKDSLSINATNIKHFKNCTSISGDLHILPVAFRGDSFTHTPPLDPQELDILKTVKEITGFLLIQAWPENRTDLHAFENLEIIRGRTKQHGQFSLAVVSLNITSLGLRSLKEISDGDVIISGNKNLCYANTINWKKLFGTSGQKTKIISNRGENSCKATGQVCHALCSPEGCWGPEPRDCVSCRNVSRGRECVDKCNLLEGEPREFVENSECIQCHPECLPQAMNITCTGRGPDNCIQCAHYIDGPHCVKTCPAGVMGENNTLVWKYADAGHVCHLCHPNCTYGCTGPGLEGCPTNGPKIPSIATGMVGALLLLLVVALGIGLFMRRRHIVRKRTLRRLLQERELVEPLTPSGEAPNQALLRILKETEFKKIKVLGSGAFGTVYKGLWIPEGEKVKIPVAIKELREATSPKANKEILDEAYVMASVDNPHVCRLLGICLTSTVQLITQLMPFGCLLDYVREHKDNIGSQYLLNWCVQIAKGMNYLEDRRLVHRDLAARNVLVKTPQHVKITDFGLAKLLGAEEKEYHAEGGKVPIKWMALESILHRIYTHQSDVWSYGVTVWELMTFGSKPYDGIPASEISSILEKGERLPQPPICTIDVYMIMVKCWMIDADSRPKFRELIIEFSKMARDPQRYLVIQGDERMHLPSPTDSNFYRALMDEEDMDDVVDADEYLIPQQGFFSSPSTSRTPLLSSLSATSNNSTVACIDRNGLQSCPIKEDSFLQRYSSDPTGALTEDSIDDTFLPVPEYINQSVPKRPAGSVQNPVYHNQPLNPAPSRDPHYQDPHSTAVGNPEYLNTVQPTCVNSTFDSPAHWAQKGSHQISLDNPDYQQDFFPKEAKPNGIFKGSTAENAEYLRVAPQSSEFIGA
Experimental: as §1, §2, §3, §4

BaF3-LR_TM_CS cells = BaF3-LR_TM_CS cells (Homo sapiens, UniProt P00533, T790M/C797S/L858R, cells depend on it); test: Cell antiproliferation assay (CellTiter-Glo), BaF3-LR_TM_CS; assay type: cell-based; details: 48 h treatment, read-out: BaF3-LR_TM_CS IC50
Experimental: as §1, §2, §3, §4

[2] = biological target: T2, EGFR(L858R_T790M_C797S) (aa695-end, Invitrogen) (Homo sapiens, UniProt P00533, C797S/L858R/T790M); test: Biochemical EGFR inhibition assay (TR-FRET), L858R/T790M/C797S mutant; details: ATP at Km, 15 min pre-incubation, 60 min reaction; read-out: LR_TM_CS (Km ATP) IC50
T2 construct: purchased Invitrogen
T2 sequence (P00533 695-1210 T790M/C797S/L858R): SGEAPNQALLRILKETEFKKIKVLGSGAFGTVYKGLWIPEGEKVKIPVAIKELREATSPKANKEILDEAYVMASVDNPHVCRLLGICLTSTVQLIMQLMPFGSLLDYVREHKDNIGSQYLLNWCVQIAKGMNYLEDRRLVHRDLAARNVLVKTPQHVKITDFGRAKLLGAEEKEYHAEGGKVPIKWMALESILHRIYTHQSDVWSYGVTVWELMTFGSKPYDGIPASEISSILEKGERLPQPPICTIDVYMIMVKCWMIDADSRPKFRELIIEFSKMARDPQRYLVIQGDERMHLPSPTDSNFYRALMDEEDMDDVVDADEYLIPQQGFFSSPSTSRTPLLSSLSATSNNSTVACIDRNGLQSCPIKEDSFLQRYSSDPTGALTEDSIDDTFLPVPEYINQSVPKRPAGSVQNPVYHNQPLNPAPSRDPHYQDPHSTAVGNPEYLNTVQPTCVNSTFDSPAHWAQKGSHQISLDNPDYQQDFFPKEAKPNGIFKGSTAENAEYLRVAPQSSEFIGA
Procedure, shortened: as §5

[3] = biological target: EGFR(Dell9_T790M_C797S) (aa 669-1210, in house) (Homo sapiens, UniProt P00533, T790M/C797S, form not given); test: Biochemical EGFR inhibition assay (TR-FRET), Del19/T790M/C797S mutant; details: ATP at Km, 15 min pre-incubation, 60 min reaction; read-out: Del_TM_CS (Km ATP) IC50
EGFR(Dell9_T790M_C797S) (aa 669-1210, in house), sequence (P00533 with tags, fused parts or gaps DEL746-750/T790M/C797S, form open): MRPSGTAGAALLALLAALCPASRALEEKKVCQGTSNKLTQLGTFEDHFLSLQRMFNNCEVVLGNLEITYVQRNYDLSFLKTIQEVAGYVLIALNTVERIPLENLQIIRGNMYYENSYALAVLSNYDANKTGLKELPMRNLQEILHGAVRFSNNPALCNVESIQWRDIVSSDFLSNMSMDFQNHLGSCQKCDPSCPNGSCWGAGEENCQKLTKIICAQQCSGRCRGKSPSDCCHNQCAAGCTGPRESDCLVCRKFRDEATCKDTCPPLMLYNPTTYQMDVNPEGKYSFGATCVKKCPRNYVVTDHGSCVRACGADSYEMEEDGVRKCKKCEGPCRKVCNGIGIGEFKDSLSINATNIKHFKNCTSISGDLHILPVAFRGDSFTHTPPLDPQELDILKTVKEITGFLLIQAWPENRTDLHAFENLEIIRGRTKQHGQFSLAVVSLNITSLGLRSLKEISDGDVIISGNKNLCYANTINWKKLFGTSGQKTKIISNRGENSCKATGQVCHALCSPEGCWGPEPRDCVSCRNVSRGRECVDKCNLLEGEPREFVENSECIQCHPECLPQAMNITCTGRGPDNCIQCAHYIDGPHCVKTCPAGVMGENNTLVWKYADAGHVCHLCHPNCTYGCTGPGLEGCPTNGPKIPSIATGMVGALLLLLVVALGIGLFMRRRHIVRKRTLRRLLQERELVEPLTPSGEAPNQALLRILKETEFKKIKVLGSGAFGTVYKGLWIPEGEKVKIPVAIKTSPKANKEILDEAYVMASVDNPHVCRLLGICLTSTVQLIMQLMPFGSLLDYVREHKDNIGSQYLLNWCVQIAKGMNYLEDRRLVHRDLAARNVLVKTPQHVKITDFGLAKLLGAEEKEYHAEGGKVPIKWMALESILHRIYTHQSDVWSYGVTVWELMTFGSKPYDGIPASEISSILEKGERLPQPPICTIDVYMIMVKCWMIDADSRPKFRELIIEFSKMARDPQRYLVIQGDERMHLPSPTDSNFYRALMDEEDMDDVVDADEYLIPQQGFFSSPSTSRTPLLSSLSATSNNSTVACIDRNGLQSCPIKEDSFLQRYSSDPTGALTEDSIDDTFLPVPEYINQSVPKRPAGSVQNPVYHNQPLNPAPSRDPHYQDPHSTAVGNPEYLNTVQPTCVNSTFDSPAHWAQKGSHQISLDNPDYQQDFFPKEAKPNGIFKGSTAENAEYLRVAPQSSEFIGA
Procedure, shortened: as §5

BaF3-Del_TM_CS cells, sequence (P00533 with tags, fused parts or gaps DEL746-750/T790M/C797S, form open): as above

| SMILES | GI50 (BaF3-Del_TM_CS cells) | IC50 [1] | GI50 (BaF3-WT cells) | GI50 (BaF3-LR_TM_CS cells) | IC50 [2] | IC50 [3] |
| --- | --- | --- | --- | --- | --- | --- |
| CN(C)C1CCN(c2ccc(Nc3ncc(Cl)c(Nc4cccc5c4N(S(C)(=O)=O)CC5)n3)c3c2OCO3)CC1 [Example 51, 5-chloro-N2-(7-(4-(dimethylamino)piperidin-1-yl)benzo[d][1,3]dioxol-4-yl)-N4-(1-(methylsulfonyl)indolin-7-yl)pyrimidine-2,4-diamine] | 10.1 nM | 4.2 nM | 235 nM | 35.9 nM | 0.8 nM | 0.19 nM |
| COc1cc(N2CCC(N3CCN(C)CC3)CC2)ccc1Nc1ncc(C)c(Nc2cccc3c2N(S(C)(=O)=O)CC3)n1 [Example 35, N^2-(2-methoxy-4-(4-(4-methylpiperazin-1-yl)piperidin-1-yl)phenyl)-5-methyl-N^4-(1-(methylsulfonyl)indolin-7-yl)pyrimidine-2,4-diamine] | 79.9 nM | 0.23 nM | 604 nM | 222 nM | 0.14 nM | 0.14 nM |
| COc1cc(N2C[C@H]3CN(C)C[C@H]3C2)c(C)cc1Nc1nc(Nc2cccc3c2N(S(C)(=O)=O)CC3)c2cc[nH]c2n1 [Example 102, N^2-(2-methoxy-5-methyl-4-((3aR,6aS)-5-methylhexahydropyrrolo[3,4-c]pyrrol-2(1H)-yl)phenyl)-N^4-(1-(methylsulfonyl)indolin-7-yl)-7H-pyrrolo[2,3-d]pyrimidine-2,4-diamine] | 30.4 nM | 66 nM | 1710 nM | 314 nM | 1.1 nM | 2 nM |
| CN(C)C1CCN(c2ccc(Nc3ncc(Br)c(Nc4cccc5c4N(S(C)(=O)=O)CC5)n3)c3c2CCO3)CC1 [Example 48, 5-bromo-N^2-(4-(4-(dimethylamino)piperidin-1-yl)-2,3-dihydrobenzofuran-7-yl)-N^4-(1-(methylsulfonyl)indolin-7-yl)pyrimidine-2,4-diamine] | 3.56 nM | 4.4 nM | 361 nM | 30.5 nM | 0.3 nM | 0.18 nM |
| COc1cc(N2CCN(C)[C@@H](C)C2)c(C)cc1Nc1nc(Nc2cccc3c2N(S(C)(=O)=O)CC3)c2cc[nH]c2n1 [Example 105, (S)—N^2-(4-(3,4-dimethylpiperazin-1-yl)-2-methoxy-5-methylphenyl)-N^4-(1-(methylsulfonyl)indolin-7-yl)-7H-pyrrolo[2,3-d]pyrimidine-2,4-diamine] | 87 nM | 455 nM | 2090 nM | 240 nM | 5.3 nM | 10 nM |
| CN(C)C1CCN(c2ccc(Nc3ncc(Cl)c(Nc4cccc5c4N(S(C)(=O)=O)CC5)n3)c3c2CCO3)CC1 [Example 47, 5-chloro-N^2-(4-(4-(dimethylamino)piperidin-1-yl)-2,3-dihydrobenzofuran-7-yl)-N^4-(1-(methylsulfonyl)indolin-7-yl)pyrimidine-2,4-diamine] | 12.3 nM | 3.8 nM | 630 nM | 37.8 nM | 0.85 nM | 0.3 nM |
| COc1cc(N2CCC(N(C)C)CC2)c(C)cc1Nc1nc(Nc2cccc3c2N(S(C)(=O)=O)CC3)c2cc[nH]c2n1 [Example 103, N^2-(4-(4-(dimethylamino)piperidin-1-yl)-2-methoxy-5-methylphenyl)-N^4-(1-(methylsulfonyl)indolin-7-yl)-7H-pyrrolo[2,3-d]pyrimidine-2,4-diamine] | 25.6 nM | 28 nM | 1690 nM | 76.7 nM | 0.47 nM | 0.78 nM |
| COc1cc(N2CCC(N3CCN(C)CC3)CC2)ccc1Nc1ncc(F)c(Nc2cccc3c2N(S(C)(=O)=O)CC3)n1 [Example 32, 5-fluoro-N^2-(2-methoxy-4-(4-(4-methylpiperazin-1-yl)piperidin-1-yl)phenyl)-N^4-(1-(methylsulfonyl)indolin-7-yl)pyrimidine-2,4-diamine] | 62.8 nM | 0.88 nM | 570 nM | 246 nM | 1.9 nM | 0.54 nM |
| COc1cc(N2CCC(N3CCN(C)CC3)CC2)ccc1Nc1ncc(Cl)c(Nc2cccc3c2N(C(C)=O)CC3)n1 [Example 17, 1-(7-((5-chloro-2-((2-methoxy-4-(4-(4-methylpiperazin-1-yl)piperidin-1-yl)phenyl)amino)pyrimidin-4-yl)amino)indolin-1-yl)ethan-1-one] | 183 nM | 21 nM | 1710 nM | 366 nM | 6.7 nM | 15 nM |
| CCOc1cc(N2CCC(N3CCN(C)CC3)CC2)c(C)cc1Nc1nc(Nc2cccc3c2N(S(C)(=O)=O)CC3)c2cc[nH]c2n1 [Example 93, N^2-(2-ethoxy-5-methyl-4-(4-(4-methylpiperazin-1-yl)piperidin-1-yl)phenyl)-N^4-(1-(methylsulfonyl)indolin-7-yl)-7H-pyrrolo[2,3-d]pyrimidine-2,4-diamine] | 54.1 nM | 110 nM | 1520 nM | 218 nM | 1.5 nM | 2.6 nM |
| COc1cc(C2CCN(C)CC2)c(C)cc1Nc1nc(Nc2cccc3c2N(S(C)(=O)=O)CC3)c2cc[nH]c2n1 [Example 99, N^2-(2-methoxy-5-methyl-4-(1-methylpiperidin-4-yl)phenyl)-N^4-(1-(methylsulfonyl)indolin-7-yl)-7H-pyrrolo[2,3-d]pyrimidine-2,4-diamine] | 59 nM | 427 nM | 1970 nM | 399 nM | 3 nM | 8.6 nM |
| COc1cc(N2CCC(N3CCN(C)CC3)CC2)ccc1Nc1ncc(Cl)c(Nc2cccc3c2N(S(C)(=O)=O)CC3)n1 [Example 30, 5-chloro-N^2-(2-methoxy-4-(4-(4-methylpiperazin-1-yl)piperidin-1-yl)phenyl)-N^4-(1-(methylsulfonyl)indolin-7-yl)pyrimidine-2,4-diamine] | 7.59 nM | 0.4 nM | 411 nM | 37.3 nM | 0.3 nM | 0.2 nM |
| CN(C)C1CCN(c2ccc(Nc3ncc(Br)c(Nc4cccc5c4N(S(C)(=O)=O)CC5)n3)c3c2OCCO3)CC1 [Example 54, 5-bromo-N^2-(8-(4-(dimethylamino)piperidin-1-yl)-2,3-dihydrobenzo[b][1,4]dioxin-5-yl)-N^4-(1-(methylsulfonyl)indolin-7-yl)pyrimidine-2,4-diamine] | 18.6 nM | 4.8 nM | 372 nM | 42.4 nM | 0.25 nM | 0.16 nM |
| COc1cc(N2CCC(N3CCN(C)CC3)CC2)ccc1Nc1ncc(Cl)c(Nc2cccc3c2N(S(C)(=O)=O)C(C)C3)n1 (stereo not drawn) [Example 18, 5-chloro-N^2-(2-methoxy-4-(4-(4-methylpiperazin-1-yl)piperidin-1-yl)phenyl)-N^4-(2-methyl-1-(methylsulfonyl)indolin-7-yl)pyrimidine-2,4-diamine] | 7.47 nM | 2.3 nM | 422 nM | 16.5 nM | 0.4 nM | 0.68 nM |
| COc1cc(N2CCC(N3CCN(C)CC3)CC2)ccc1Nc1ncc(Cl)c(Nc2cccc3c2N(C(=O)N(C)C)CC3)n1 [Example 15, 7-((5-chloro-2-((2-methoxy-4-(4-(4-methylpiperazin-1-yl)piperidin-1-yl)phenyl)amino)pyrimidin-4-yl)amino)-N,N-dimethylindoline-1-carboxamide] | 1800 nM | 1360 nM | 4120 nM | 2030 nM | 369 nM | 2200 nM |
